Data reported in ChEMBL document CHEMBL1158077, “Microbial transformation and butyrylcholinesterase inhibitory activity of (-)-caryophyllene oxide and its derivatives” (J Nat Prod, 2006).

Each compound was assayed against Cholinesterase (Equus caballus, UniProt P81908) (assay: Inhibition of horse serum BuChE by Ellman's method).
Cholinesterase, sequence (P81908 whole entry): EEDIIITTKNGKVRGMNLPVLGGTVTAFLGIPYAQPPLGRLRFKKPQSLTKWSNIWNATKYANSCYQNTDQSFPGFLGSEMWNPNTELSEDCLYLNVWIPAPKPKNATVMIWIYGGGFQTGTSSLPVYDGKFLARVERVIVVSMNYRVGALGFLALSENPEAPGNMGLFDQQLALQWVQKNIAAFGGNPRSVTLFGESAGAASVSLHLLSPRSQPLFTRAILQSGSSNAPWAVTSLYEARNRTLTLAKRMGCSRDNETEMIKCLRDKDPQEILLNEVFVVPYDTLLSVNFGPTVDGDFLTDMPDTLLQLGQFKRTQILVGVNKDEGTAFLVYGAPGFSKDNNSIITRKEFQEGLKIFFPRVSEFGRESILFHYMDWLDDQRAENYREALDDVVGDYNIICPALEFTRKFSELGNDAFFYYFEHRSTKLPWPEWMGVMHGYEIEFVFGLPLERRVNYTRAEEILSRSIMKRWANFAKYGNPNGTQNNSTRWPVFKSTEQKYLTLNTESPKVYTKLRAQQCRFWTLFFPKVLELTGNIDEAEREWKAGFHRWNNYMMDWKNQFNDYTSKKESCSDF

**Q.** `C=C1CC[C@@H]2O[C@]2(C)CC[C@@H]2[C@@H]1CC2(C)C` was tested. Which IC50 did it give?
**A.** 208 µM

**Q.** For `C=C1CC[C@H]2O[C@]2(C)CC[C@@H]2[C@@H]1C[C@]2(C)CO`, which IC50 is on record?
**A.** 10.9 µM

**Q.** How did the IC50 turn out when `CC1(C)C[C@@H]2C(=O)CC[C@H]3O[C@]3(C)C[C@H](O)[C@H]21` was run?
**A.** 459 µM

**Q.** Which IC50 does the source give for `CC1(C)C[C@H]2[C@H]1CC[C@]1(C)[C@H](O)CC[C@@]2(O)[C@H]1O` here?
**A.** 23.6 µM

**Q.** `CC1(C)C[C@H](O)[C@]23CC[C@@H](O)[C@](C)(CC[C@@H]12)C3` was tested. Which IC50 did it give?
**A.** 456 µM

**Q.** For `C=C1CC[C@H]2O[C@]2(C)CC[C@@H]2[C@@H]1C[C@@]2(C)CO`, which IC50 is on record?
**A.** 189 µM

**Q.** For `CC1(C)C[C@@H]2[C@@H](CO)CC[C@H]3O[C@]3(C)CC[C@H]21`, which IC50 is on record?
**A.** 26.4 µM

**Q.** Which IC50 does the source give for `C=C1CC[C@@H](O)[C@](C)(O)CC[C@@H]2[C@@H]1CC2(C)C` here?
**A.** 44 µM

**Q.** Which IC50 does the source give for `CC1(C)C[C@H](O)[C@]23CC[C@@H](O)[C@](CO)(CC[C@@H]12)C3` here?
**A.** 43.6 µM

**Q.** How did the IC50 turn out when `CC1(C)C[C@@H]2[C@@H](CO)CC[C@H]3O[C@]3(C)[C@H](O)C[C@H]21` was run?
**A.** 155 µM
